Results taken from ChEMBL document CHEMBL5046285, “Probing Fluorinated Motifs onto Dual AChE-MAO B Inhibitors: Rational Design, Synthesis, Biological Evaluation, and Early-ADME Studies” (J Med Chem, 2022).
Values after ≈ are worked out from the molar mass of the structure shown.

test system: not listed separately; assay: Microsomal stability in mouse liver microsomes assessed as half life at 0.5 uM incubated upto 30 mins in presence of NADPH by LC/MS/MS analysis; format: ADME, Microsome; settings: not given; call rule not given here

Structure (SMILES)	half-life at 0.5 µM
Cc1c(C)c2ccc(OCC3CCN(Cc4cccc(F)c4)CC3)cc2oc1=O	6.2 min
Cc1c(C)c2ccc(OCC3CCCN(Cc4ccccc4)C3)cc2oc1=O (racemic)	5.3 min
Cc1c(C)c2ccc(OCC3CCCN(Cc4cccc(F)c4)C3)cc2oc1=O (racemic)	6.6 min
CCN(CCCOc1ccc2c(C)c(C)c(=O)oc2c1)Cc1cccc(F)c1	5.3 min
CN(Cc1ccccc1)Cc1ccc(COc2ccc3c(CO)cc(=O)oc3c2)cc1	31.7 min
Cc1c(C)c2ccc(OCC3CCN(Cc4ccccc4)CC3)cc2oc1=O	6.7 min
Cc1c(C)c2ccc(OCc3cccc(CN(C)CCCC(F)F)c3)cc2oc1=O	4.8 min
Cc1c(C)c2ccc(OCC3CCCN(CCCO)C3)cc2oc1=O (racemic)	92.4 min

test system: not listed separately; assay: Effective permeability of the compound in PBS buffer at pH 7.4 by PAMPA-BBB assay; format: ADME; settings: read-out: Peff

Structure (SMILES)	Papp
Cc1c(C)c2ccc(OCC3CCCN(Cc4cccc(F)c4)C3)cc2oc1=O (racemic)	10 ×10⁻⁶ cm/s
Cc1c(C)c2ccc(OCC3CCCN(CCCO)C3)cc2oc1=O (racemic)	7.2 ×10⁻⁶ cm/s

target: T1, Amine oxidase [flavin-containing] A (Homo sapiens, UniProt P21397); settings: not given
T1 sequence (P21397 whole entry): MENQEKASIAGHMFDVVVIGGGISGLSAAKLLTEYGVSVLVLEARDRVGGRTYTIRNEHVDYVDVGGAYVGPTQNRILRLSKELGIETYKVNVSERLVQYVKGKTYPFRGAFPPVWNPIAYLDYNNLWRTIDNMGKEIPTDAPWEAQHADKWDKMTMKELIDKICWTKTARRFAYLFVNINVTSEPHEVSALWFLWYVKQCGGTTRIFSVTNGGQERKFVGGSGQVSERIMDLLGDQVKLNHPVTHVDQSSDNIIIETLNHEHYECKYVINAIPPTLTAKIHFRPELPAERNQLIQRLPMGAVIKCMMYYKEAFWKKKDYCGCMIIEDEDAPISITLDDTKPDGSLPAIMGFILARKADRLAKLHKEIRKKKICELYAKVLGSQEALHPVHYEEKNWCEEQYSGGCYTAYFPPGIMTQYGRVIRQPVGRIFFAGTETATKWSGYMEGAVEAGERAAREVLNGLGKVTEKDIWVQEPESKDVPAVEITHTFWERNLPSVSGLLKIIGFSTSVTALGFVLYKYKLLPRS

Structure (SMILES)	IC50
Cc1c(C)c2ccc(OCC3CCN(Cc4cccc(F)c4)CC3)cc2oc1=O	2500 nM
Cc1c(C)c2ccc(OCC3CCCN(Cc4cccc(F)c4)C3)cc2oc1=O (racemic)	2000 nM
CCN(CCCOc1ccc2c(C)c(C)c(=O)oc2c1)Cc1cccc(F)c1	7800 nM
Cc1c(C)c2ccc(OCc3cccc(CN(C)CCCC(F)F)c3)cc2oc1=O	4200 nM

test system: not listed separately; assay: Apparent permeability across basolateral to apical side in human Caco-2 cells at 10 uM incubated for 60 mins by HPLC-MS/MS method; format: ADME, cell-based; settings: not given

Structure (SMILES)	Papp B→A at 1 h, 10 µM
Cc1c(C)c2ccc(OCC3CCN(Cc4ccccc4)CC3)cc2oc1=O	12 ×10⁻⁶ cm/s

target: T2, Amine oxidase [flavin-containing] B (Homo sapiens, UniProt P27338); assay: Inhibition of human recombinant MAO-B expressed in supersomes assessed as inhibition of 4-hydroxyquinoline formation using kynuramine as substrate by spectrophotometric method; settings: not given
T2 sequence (P27338 whole entry): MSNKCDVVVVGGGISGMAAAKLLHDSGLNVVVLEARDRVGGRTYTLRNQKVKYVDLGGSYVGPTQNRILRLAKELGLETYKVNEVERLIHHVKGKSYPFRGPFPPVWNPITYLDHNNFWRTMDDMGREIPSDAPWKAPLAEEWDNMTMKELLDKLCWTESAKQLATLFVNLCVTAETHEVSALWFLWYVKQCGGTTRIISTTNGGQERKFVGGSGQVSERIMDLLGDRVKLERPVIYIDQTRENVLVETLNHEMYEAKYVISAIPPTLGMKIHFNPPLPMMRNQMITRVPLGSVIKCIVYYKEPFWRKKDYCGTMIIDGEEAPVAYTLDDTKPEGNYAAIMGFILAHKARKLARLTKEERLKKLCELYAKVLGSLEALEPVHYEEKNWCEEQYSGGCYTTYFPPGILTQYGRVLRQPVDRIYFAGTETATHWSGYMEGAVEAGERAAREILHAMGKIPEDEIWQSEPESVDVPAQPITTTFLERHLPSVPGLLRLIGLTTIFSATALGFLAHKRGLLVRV

Structure (SMILES)	inhibition (INH)
Cc1c(C)c2ccc(OCC3CCN(Cc4cccc(F)c4)CC3)cc2oc1=O	Active

target: Acetylcholinesterase (Homo sapiens, UniProt P22303); settings: not given
Sequence (P22303 whole entry): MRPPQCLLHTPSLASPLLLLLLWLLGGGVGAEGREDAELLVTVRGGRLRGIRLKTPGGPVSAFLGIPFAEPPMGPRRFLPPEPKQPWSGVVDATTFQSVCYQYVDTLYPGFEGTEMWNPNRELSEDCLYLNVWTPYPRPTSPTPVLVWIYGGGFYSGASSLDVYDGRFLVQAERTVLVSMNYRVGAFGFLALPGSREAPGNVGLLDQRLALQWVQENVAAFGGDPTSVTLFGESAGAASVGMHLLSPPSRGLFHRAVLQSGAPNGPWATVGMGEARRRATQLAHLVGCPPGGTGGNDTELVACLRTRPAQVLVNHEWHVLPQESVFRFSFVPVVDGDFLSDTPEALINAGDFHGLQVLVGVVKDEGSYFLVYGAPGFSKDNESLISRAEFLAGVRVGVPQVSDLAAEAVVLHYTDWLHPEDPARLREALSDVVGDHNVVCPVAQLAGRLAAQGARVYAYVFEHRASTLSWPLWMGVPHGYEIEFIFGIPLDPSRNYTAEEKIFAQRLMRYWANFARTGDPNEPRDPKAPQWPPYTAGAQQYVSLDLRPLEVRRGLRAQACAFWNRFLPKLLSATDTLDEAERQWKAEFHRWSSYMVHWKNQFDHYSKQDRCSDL

Structure (SMILES)	IC50
Cc1c(C)c2ccc(OCC3CCN(Cc4cccc(F)c4)CC3)cc2oc1=O	460 nM
Cc1c(C)c2ccc(OCC3CCCN(Cc4cccc(F)c4)C3)cc2oc1=O (racemic)	1200 nM
CCN(CCCOc1ccc2c(C)c(C)c(=O)oc2c1)Cc1cccc(F)c1	1200 nM
Cc1c(C)c2ccc(OCC3CCN(Cc4ccccc4)CC3)cc2oc1=O	380 nM
Cc1c(C)c2ccc(OCc3cccc(CN(C)CCCC(F)F)c3)cc2oc1=O	1700 nM
Cc1c(C)c2ccc(OCC3CCCN(CCCO)C3)cc2oc1=O (racemic)	1100 nM

test system: not listed separately; assay: Apparent permeability across apical to basolateral side in human Caco-2 cells at 10 uM incubated for 60 mins by HPLC-MS/MS method; format: ADME, cell-based; settings: not given

Structure (SMILES)	Papp A→B at 1 h, 10 µM
Cc1c(C)c2ccc(OCC3CCN(Cc4ccccc4)CC3)cc2oc1=O	7 ×10⁻⁶ cm/s

test system: not listed separately; assay: Kinetic aqueous solubility of the compound in PBS incubated for 2 hrs under mild shaking at pH 7.4 by UV- vis spectrophotometric analysis; format: physicochemical; settings: read-out: Kinetic_solubility

Structure (SMILES)	solubility kinetic at 2 h
Cc1c(C)c2ccc(OCC3CCN(Cc4cccc(F)c4)CC3)cc2oc1=O	11 µM (≈ 4.35 µg/mL)
Cc1c(C)c2ccc(OCC3CCCN(Cc4ccccc4)C3)cc2oc1=O (racemic)	33 µM (≈ 12.5 µg/mL)
Cc1c(C)c2ccc(OCC3CCCN(Cc4cccc(F)c4)C3)cc2oc1=O (racemic)	20 µM (≈ 7.91 µg/mL)
CCN(CCCOc1ccc2c(C)c(C)c(=O)oc2c1)Cc1cccc(F)c1	18 µM (≈ 6.9 µg/mL)
Cc1c(C)c2ccc(OCC3CCN(Cc4ccccc4)CC3)cc2oc1=O	57 µM (≈ 21.5 µg/mL)
Cc1c(C)c2ccc(OCc3cccc(CN(C)CCCC(F)F)c3)cc2oc1=O	13 µM (≈ 5.4 µg/mL)
Cc1c(C)c2ccc(OCC3CCCN(CCCO)C3)cc2oc1=O (racemic)	> 500 µM

test system: SH-SY5Y; assay: Cytotoxicity against human SH-SY5Y cells assessed as reduction in cell viability at 1 to 100 uM incubated for 4 hrs by CellTiter-Glo luminescence assay; format: toxicity, cell-based; settings: dose 1-100 µM

Structure (SMILES)	Activity
Cc1c(C)c2ccc(OCC3CCCN(CCCO)C3)cc2oc1=O (racemic)	Non-Toxic

test system: not listed separately; assay: Efflux ratio of apparent permeability across basolateral to apical side over apical to basolateral side in human Caco-2 cells; format: ADME, cell-based; settings: not given

Structure (SMILES)	efflux ratio
Cc1c(C)c2ccc(OCC3CCN(Cc4ccccc4)CC3)cc2oc1=O	1.6

test system: not listed separately; assay: Intrinsic clearance in mouse liver microsomes at 0.5 uM incubated upto 30 mins in presence of NADPH measured per mg protein by LC/MS/MS analysis; format: ADME, Microsome; settings: read-out: CLH

Structure (SMILES)	microsomal CLint at 0.5 µM
Cc1c(C)c2ccc(OCC3CCN(Cc4cccc(F)c4)CC3)cc2oc1=O	225 µL/min/mg
Cc1c(C)c2ccc(OCC3CCCN(Cc4ccccc4)C3)cc2oc1=O (racemic)	265 µL/min/mg
Cc1c(C)c2ccc(OCC3CCCN(Cc4cccc(F)c4)C3)cc2oc1=O (racemic)	210 µL/min/mg
CCN(CCCOc1ccc2c(C)c(C)c(=O)oc2c1)Cc1cccc(F)c1	260 µL/min/mg
CN(Cc1ccccc1)Cc1ccc(COc2ccc3c(CO)cc(=O)oc3c2)cc1	43.9 µL/min/mg
Cc1c(C)c2ccc(OCC3CCN(Cc4ccccc4)CC3)cc2oc1=O	206 µL/min/mg
Cc1c(C)c2ccc(OCc3cccc(CN(C)CCCC(F)F)c3)cc2oc1=O	289 µL/min/mg
Cc1c(C)c2ccc(OCC3CCCN(CCCO)C3)cc2oc1=O (racemic)	15.1 µL/min/mg

test system: not listed separately; assay: Chromatographic hydrophobicity index of the compound in ammonium acetate buffer at pH 7.4 by RP-HPLC analysis; format: physicochemical; settings: not given

Structure (SMILES)	CHI
Cc1c(C)c2ccc(OCC3CCN(Cc4cccc(F)c4)CC3)cc2oc1=O	> 100
Cc1c(C)c2ccc(OCC3CCCN(Cc4ccccc4)C3)cc2oc1=O (racemic)	> 100
Cc1c(C)c2ccc(OCC3CCCN(Cc4cccc(F)c4)C3)cc2oc1=O (racemic)	> 100
CCN(CCCOc1ccc2c(C)c(C)c(=O)oc2c1)Cc1cccc(F)c1	> 100
CN(Cc1ccccc1)Cc1ccc(COc2ccc3c(CO)cc(=O)oc3c2)cc1	99.3
Cc1c(C)c2ccc(OCC3CCN(Cc4ccccc4)CC3)cc2oc1=O	99.7
Cc1c(C)c2ccc(OCc3cccc(CN(C)CCCC(F)F)c3)cc2oc1=O	> 100
Cc1c(C)c2ccc(OCC3CCCN(CCCO)C3)cc2oc1=O (racemic)	48.8

target: Cytochrome P450 3A4 (Homo sapiens, UniProt P08684); assay: Inhibition of human recombinant CYP3A4 expressed in baculosomes by fluorescent homogenous assay; format: ADME; settings: not given
Sequence (P08684 whole entry): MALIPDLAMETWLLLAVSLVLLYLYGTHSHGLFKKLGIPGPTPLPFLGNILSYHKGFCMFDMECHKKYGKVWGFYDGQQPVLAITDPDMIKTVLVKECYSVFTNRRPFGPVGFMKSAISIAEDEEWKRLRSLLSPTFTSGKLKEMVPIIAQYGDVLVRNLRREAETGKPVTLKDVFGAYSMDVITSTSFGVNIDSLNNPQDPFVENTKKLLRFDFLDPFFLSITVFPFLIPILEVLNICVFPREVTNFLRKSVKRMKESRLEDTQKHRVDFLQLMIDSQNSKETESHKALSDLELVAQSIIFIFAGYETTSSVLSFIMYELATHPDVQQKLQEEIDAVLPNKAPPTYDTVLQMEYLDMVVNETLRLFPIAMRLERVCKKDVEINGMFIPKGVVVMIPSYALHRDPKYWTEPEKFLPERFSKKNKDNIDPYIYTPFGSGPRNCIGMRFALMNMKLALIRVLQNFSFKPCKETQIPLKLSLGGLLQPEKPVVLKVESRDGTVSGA

Structure (SMILES)	IC50
Cc1c(C)c2ccc(OCc3cccc(CN(C)CCCC(F)F)c3)cc2oc1=O	600 nM

test system: HepG2; assay: Cytotoxicity against human HepG2 cells assessed as reduction in cell viability at 1 to 100 uM incubated for 4 hrs by CellTiter-Glo luminescence assay; format: toxicity, cell-based; settings: hepg2, 4 h, dose 1-100 µM

Structure (SMILES)	Activity
Cc1c(C)c2ccc(OCC3CCCN(CCCO)C3)cc2oc1=O (racemic)	Non-Toxic

target: Cholinesterase (Equus caballus, UniProt P81908); settings: not given
Sequence (P81908 whole entry): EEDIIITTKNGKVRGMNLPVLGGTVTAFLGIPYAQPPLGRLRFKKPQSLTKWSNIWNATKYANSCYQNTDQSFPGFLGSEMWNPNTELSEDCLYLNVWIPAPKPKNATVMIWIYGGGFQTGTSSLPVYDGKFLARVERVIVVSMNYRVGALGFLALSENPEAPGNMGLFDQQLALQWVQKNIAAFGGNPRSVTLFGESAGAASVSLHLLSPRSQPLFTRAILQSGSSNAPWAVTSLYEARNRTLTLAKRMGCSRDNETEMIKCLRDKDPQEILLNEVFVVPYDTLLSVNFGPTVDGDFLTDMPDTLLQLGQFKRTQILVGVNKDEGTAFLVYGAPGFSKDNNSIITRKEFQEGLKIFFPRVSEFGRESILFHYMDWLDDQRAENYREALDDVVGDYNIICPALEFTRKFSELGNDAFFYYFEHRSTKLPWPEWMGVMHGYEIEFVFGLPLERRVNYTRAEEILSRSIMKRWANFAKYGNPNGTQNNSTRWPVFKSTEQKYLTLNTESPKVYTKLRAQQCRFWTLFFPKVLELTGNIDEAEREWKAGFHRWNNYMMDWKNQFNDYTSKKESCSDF

Structure (SMILES)	IC50
Cc1c(C)c2ccc(OCC3CCN(Cc4cccc(F)c4)CC3)cc2oc1=O	2900 nM
Cc1c(C)c2ccc(OCC3CCCN(Cc4cccc(F)c4)C3)cc2oc1=O (racemic)	2000 nM
CCN(CCCOc1ccc2c(C)c(C)c(=O)oc2c1)Cc1cccc(F)c1	4300 nM
Cc1c(C)c2ccc(OCc3cccc(CN(C)CCCC(F)F)c3)cc2oc1=O	1600 nM

target: T2, Amine oxidase [flavin-containing] B; assay: Reversible inhibition of human recombinant MAO-B expressed in supersomes using kynuramine as substrate at 10 nM co-incubated with enzyme and measured over 6 hrs by spectrophotometric method; settings: 0.01 µM

Structure (SMILES)	inhibition (INH)
C[C@H](NCc1ccc(OCc2cccc(F)c2)cc1)C(N)=O [SAFINAMIDE]	Active

test system: not listed separately; assay: 1-Octanol/PBS buffer distribution coefficient, log D of the compound at 1 uM measured after 24 hrs at pH 7.4 by shake flask based HPLC-ES-MS/MS analysis; format: physicochemical; settings: not given

Structure (SMILES)	logD at 24 h, 1 µM
Cc1c(C)c2ccc(OCC3CCN(Cc4cccc(F)c4)CC3)cc2oc1=O	3.43
Cc1c(C)c2ccc(OCC3CCCN(Cc4ccccc4)C3)cc2oc1=O (racemic)	3.65
Cc1c(C)c2ccc(OCC3CCCN(Cc4cccc(F)c4)C3)cc2oc1=O (racemic)	4.38
CN(Cc1ccccc1)Cc1ccc(COc2ccc3c(CO)cc(=O)oc3c2)cc1	3.81
Cc1c(C)c2ccc(OCC3CCN(Cc4ccccc4)CC3)cc2oc1=O	3.4
Cc1c(C)c2ccc(OCc3cccc(CN(C)CCCC(F)F)c3)cc2oc1=O	3.65
Cc1c(C)c2ccc(OCC3CCCN(CCCO)C3)cc2oc1=O (racemic)	1.15

target: T2, Amine oxidase [flavin-containing] B; settings: not given

Structure (SMILES)	IC50
Cc1c(C)c2ccc(OCC3CCN(Cc4cccc(F)c4)CC3)cc2oc1=O	140 nM
Cc1c(C)c2ccc(OCC3CCCN(Cc4cccc(F)c4)C3)cc2oc1=O (racemic)	12 nM
CCN(CCCOc1ccc2c(C)c(C)c(=O)oc2c1)Cc1cccc(F)c1	73 nM
Cc1c(C)c2ccc(OCc3cccc(CN(C)CCCC(F)F)c3)cc2oc1=O	560 nM
